Laboratory results as given in patent publication US9963445B2, “Chemical compounds” (SYNGENTA PARTICIPATIONS AG, priority 2013, dated 2018).

Each molecule was assayed on Echinochloa crus-galli (assay: Post-emergence herbicidal activity, glasshouse pot test). Settings: Application post-emergence, rate 1000 g/ha, evaluated after 13 days.
Assay type: in vivo
Parameters: key: 0 = no damage to plant, 5 = total damage to plant
Procedure, shortened: (§1)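 After 8 days of glasshouse growth at 24/16 °C day/night, potted plants receive a foliar spray of the formulated compound (0.5% Tween 20 in acetone/water). They are then watered twice daily under unchanged conditions, and phytotoxicity is scored 0–5 after 13 days.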
`COC1=C(OC)C(O)N(c2ccc(C(F)(F)F)nn2)C1=O` (stereo not drawn) [BK2] was tested, and the “ECHCG herbicidal damage score” value was 1.
In the case of `CC1=C(Cl)C(=O)N(c2cc(C(C)(C)C)ncn2)C1O` (stereo not drawn) [CF2], the “ECHCG herbicidal damage score” value is reported as 5.
In the case of `CC1=C(Cl)C(=O)N(c2cc(C(F)(F)F)ncn2)C1O` (stereo not drawn) [CF3], the “ECHCG herbicidal damage score” value is reported as 5.
With `CC1=C(Cl)C(=O)N(c2cc(C3CC3)ncn2)C1O` (stereo not drawn) [CF4] the “ECHCG herbicidal damage score” value was 5.

These molecules were tested on Alopecurus myosuroides in the same assay as above. Settings: Application post-emergence, rate 1000 g/ha, evaluated after 13 days.
Assay type: in vivo
Parameters: key: 0 = no damage to plant, 5 = total damage to plant
Procedure, shortened: as §1
`COC1=C(OC)C(O)N(c2ccc(C(F)(F)F)nn2)C1=O` (stereo not drawn) [BK2] was tested, and the “ALOMY herbicidal damage score” value was 1.
In the case of `CC1=C(Cl)C(=O)N(c2cc(C(C)(C)C)ncn2)C1O` (stereo not drawn) [CF2], the “ALOMY herbicidal damage score” value is reported as 5.
For `CC1=C(Cl)C(=O)N(c2cc(C(F)(F)F)ncn2)C1O` (stereo not drawn) [CF3], the “ALOMY herbicidal damage score” value was 5.
In the case of `CC1=C(Cl)C(=O)N(c2cc(C3CC3)ncn2)C1O` (stereo not drawn) [CF4], the “ALOMY herbicidal damage score” value is reported as 5.

What follows are molecules tested on zea mays in the same assay as above. Settings: Application post-emergence, rate 1000 g/ha, evaluated after 13 days.
Assay type: in vivo
Parameters: key: 0 = no damage to plant, 5 = total damage to plant
Procedure, shortened: as §1
In the case of `COC1=C(OC)C(O)N(c2ccc(C(F)(F)F)nn2)C1=O` (stereo not drawn) [BK2], the “ZEAMX herbicidal damage score” value is reported as 0.
In the case of `CC1=C(Cl)C(=O)N(c2cc(C(C)(C)C)ncn2)C1O` (stereo not drawn) [CF2], the “ZEAMX herbicidal damage score” value is reported as 5.
`CC1=C(Cl)C(=O)N(c2cc(C(F)(F)F)ncn2)C1O` (stereo not drawn) [CF3] was tested, and the “ZEAMX herbicidal damage score” value was 4.
For `CC1=C(Cl)C(=O)N(c2cc(C3CC3)ncn2)C1O` (stereo not drawn) [CF4], the “ZEAMX herbicidal damage score” value was 2.

The molecules below were run on Setaria faberi in the same assay as above. Settings: Application post-emergence, rate 1000 g/ha, evaluated after 13 days.
Assay type: in vivo
Parameters: key: 0 = no damage to plant, 5 = total damage to plant
Procedure, shortened: as §1
With `COC1=C(OC)C(O)N(c2ccc(C(F)(F)F)nn2)C1=O` (stereo not drawn) [BK2] the “SETFA herbicidal damage score” value was 1.
In the case of `CC1=C(Cl)C(=O)N(c2cc(C(C)(C)C)ncn2)C1O` (stereo not drawn) [CF2], the “SETFA herbicidal damage score” value is reported as 5.
In the case of `CC1=C(Cl)C(=O)N(c2cc(C(F)(F)F)ncn2)C1O` (stereo not drawn) [CF3], the “SETFA herbicidal damage score” value is reported as 5.
For `CC1=C(Cl)C(=O)N(c2cc(C3CC3)ncn2)C1O` (stereo not drawn) [CF4], the “SETFA herbicidal damage score” value was 5.

Each molecule was assayed on Abutilon theophrasti in the same assay as above. Settings: Application post-emergence, rate 1000 g/ha, evaluated after 13 days.
Assay type: in vivo
Parameters: key: 0 = no damage to plant, 5 = total damage to plant
Procedure, shortened: as §1
For `COC1=C(OC)C(O)N(c2ccc(C(F)(F)F)nn2)C1=O` (stereo not drawn) [BK2], the “ABUTH herbicidal damage score” value was 1.
With `CC1=C(Cl)C(=O)N(c2cc(C(C)(C)C)ncn2)C1O` (stereo not drawn) [CF2] the “ABUTH herbicidal damage score” value was 5.
With `CC1=C(Cl)C(=O)N(c2cc(C(F)(F)F)ncn2)C1O` (stereo not drawn) [CF3] the “ABUTH herbicidal damage score” value was 5.
With `CC1=C(Cl)C(=O)N(c2cc(C3CC3)ncn2)C1O` (stereo not drawn) [CF4] the “ABUTH herbicidal damage score” value was 5.

Each molecule was assayed on Amaranthus retroflexus in the same assay as above. Settings: Application post-emergence, rate 1000 g/ha, evaluated after 13 days.
Assay type: in vivo
Parameters: key: 0 = no damage to plant, 5 = total damage to plant
Procedure, shortened: as §1
For `COC1=C(OC)C(O)N(c2ccc(C(F)(F)F)nn2)C1=O` (stereo not drawn) [BK2], the “AMARE herbicidal damage score” value was 1.
For `CC1=C(Cl)C(=O)N(c2cc(C(C)(C)C)ncn2)C1O` (stereo not drawn) [CF2], the “AMARE herbicidal damage score” value was 5.
With `CC1=C(Cl)C(=O)N(c2cc(C(F)(F)F)ncn2)C1O` (stereo not drawn) [CF3] the “AMARE herbicidal damage score” value was 3.
For `CC1=C(Cl)C(=O)N(c2cc(C3CC3)ncn2)C1O` (stereo not drawn) [CF4], the “AMARE herbicidal damage score” value was 5.

Each molecule was assayed on Echinochloa crus-galli (assay: Pre-emergence herbicidal activity, glasshouse pot test). Settings: pre-emergence spray, rate 1000 g/ha, evaluated after 13 days, scale 0-5.
Assay type: in vivo
Procedure, shortened: (§2)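 Damage score 0–5 (5 = total damage) read 13 d after spraying. Pots sown, sprayed pre-emergence at day 1 with aqueous spray from acetone/water 50:50 + 0.5% Tween 20 formulation; glasshouse 24/16 °C, 14 h light, 65% RH.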
For `COC1=C(OC)C(O)N(c2ccc(C(F)(F)F)nn2)C1=O` (stereo not drawn) [BK2], the “ECHCG damage score, application pre-emergence” value (“ECHCG damage score” below) was 0.
For `CC1=C(Cl)C(=O)N(c2cc(C(C)(C)C)ncn2)C1O` (stereo not drawn) [CF2], the “ECHCG damage score” value was 4.
For `CC1=C(Cl)C(=O)N(c2cc(C(F)(F)F)ncn2)C1O` (stereo not drawn) [CF3], the “ECHCG damage score” value was 4.
For `CC1=C(Cl)C(=O)N(c2cc(C3CC3)ncn2)C1O` (stereo not drawn) [CF4], the “ECHCG damage score” value was 4.

The molecules below were run on Alopecurus myosuroides in the same assay as above. Settings: pre-emergence spray, rate 1000 g/ha, evaluated after 13 days, scale 0-5.
Assay type: in vivo
Procedure, shortened: as §2
In the case of `COC1=C(OC)C(O)N(c2ccc(C(F)(F)F)nn2)C1=O` (stereo not drawn) [BK2], the “ALOMY damage score, application pre-emergence” value (“ALOMY damage score” below) is reported as 0.
`CC1=C(Cl)C(=O)N(c2cc(C(C)(C)C)ncn2)C1O` (stereo not drawn) [CF2] was tested, and the “ALOMY damage score” value was 4.
In the case of `CC1=C(Cl)C(=O)N(c2cc(C(F)(F)F)ncn2)C1O` (stereo not drawn) [CF3], the “ALOMY damage score” value is reported as 3.
`CC1=C(Cl)C(=O)N(c2cc(C3CC3)ncn2)C1O` (stereo not drawn) [CF4] was tested, and the “ALOMY damage score” value was 3.

Each molecule was assayed on zea mays in the same assay as above. Settings: pre-emergence spray, rate 1000 g/ha, evaluated after 13 days, scale 0-5.
Assay type: in vivo
Procedure, shortened: as §2
For `COC1=C(OC)C(O)N(c2ccc(C(F)(F)F)nn2)C1=O` (stereo not drawn) [BK2], the “ZEAMX damage score, application pre-emergence” value (“ZEAMX damage score” below) was 0.
For `CC1=C(Cl)C(=O)N(c2cc(C(C)(C)C)ncn2)C1O` (stereo not drawn) [CF2], the “ZEAMX damage score” value was 3.
For `CC1=C(Cl)C(=O)N(c2cc(C(F)(F)F)ncn2)C1O` (stereo not drawn) [CF3], the “ZEAMX damage score” value was 1.
For `CC1=C(Cl)C(=O)N(c2cc(C3CC3)ncn2)C1O` (stereo not drawn) [CF4], the “ZEAMX damage score” value was 1.

The molecules below were run on Setaria faberi in the same assay as above. Settings: pre-emergence spray, rate 1000 g/ha, evaluated after 13 days, scale 0-5.
Assay type: in vivo
Procedure, shortened: as §2
With `COC1=C(OC)C(O)N(c2ccc(C(F)(F)F)nn2)C1=O` (stereo not drawn) [BK2] the “SETFA damage score, application pre-emergence” value (“SETFA damage score” below) was 0.
In the case of `CC1=C(Cl)C(=O)N(c2cc(C(C)(C)C)ncn2)C1O` (stereo not drawn) [CF2], the “SETFA damage score” value is reported as 4.
In the case of `CC1=C(Cl)C(=O)N(c2cc(C(F)(F)F)ncn2)C1O` (stereo not drawn) [CF3], the “SETFA damage score” value is reported as 3.
`CC1=C(Cl)C(=O)N(c2cc(C3CC3)ncn2)C1O` (stereo not drawn) [CF4] was tested, and the “SETFA damage score” value was 5.

What follows are molecules tested on Abutilon theophrasti in the same assay as above. Settings: pre-emergence spray, rate 1000 g/ha, evaluated after 13 days, scale 0-5.
Assay type: in vivo
Procedure, shortened: as §2
With `COC1=C(OC)C(O)N(c2ccc(C(F)(F)F)nn2)C1=O` (stereo not drawn) [BK2] the “ABUTH damage score, application pre-emergence” value (“ABUTH damage score” below) was 0.
In the case of `CC1=C(Cl)C(=O)N(c2cc(C(C)(C)C)ncn2)C1O` (stereo not drawn) [CF2], the “ABUTH damage score” value is reported as 5.
`CC1=C(Cl)C(=O)N(c2cc(C(F)(F)F)ncn2)C1O` (stereo not drawn) [CF3] was tested, and the “ABUTH damage score” value was 5.
In the case of `CC1=C(Cl)C(=O)N(c2cc(C3CC3)ncn2)C1O` (stereo not drawn) [CF4], the “ABUTH damage score” value is reported as 5.

Each molecule was assayed on Amaranthus retroflexus in the same assay as above. Settings: pre-emergence spray, rate 1000 g/ha, evaluated after 13 days, scale 0-5.
Assay type: in vivo
Procedure, shortened: as §2
With `COC1=C(OC)C(O)N(c2ccc(C(F)(F)F)nn2)C1=O` (stereo not drawn) [BK2] the “AMARE damage score, application pre-emergence” value (“AMARE damage score” below) was 0.
`CC1=C(Cl)C(=O)N(c2cc(C(C)(C)C)ncn2)C1O` (stereo not drawn) [CF2] was tested, and the “AMARE damage score” value was 5.
`CC1=C(Cl)C(=O)N(c2cc(C(F)(F)F)ncn2)C1O` (stereo not drawn) [CF3] was tested, and the “AMARE damage score” value was 3.
In the case of `CC1=C(Cl)C(=O)N(c2cc(C3CC3)ncn2)C1O` (stereo not drawn) [CF4], the “AMARE damage score” value is reported as 5.
